Data on 17 molecules can be found in PubChem BioAssay (NCI).

Some test systems named below: OVCAR-4 ovarian; SW-620 colon; CAKI-1 renal; MALME-3M melanoma; SN12C renal; COLO 205 colon; SR leukemia; UO-31 renal; TK-10 renal; HL-60(TB) leukemia.
What all share (assay): NCI tumour cell line growth inhibition, 48 h

Each structure is given as a SMILES string.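 All cell lines were grown in 96-well plates and treated with compound for 48 hours. Abbreviation: GI50, concentration required for 50% inhibition of growth. TGI is the concentration that stops growth completely.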

Turning to `CC12CCC(O)CC1CCC1C2CCC2(C)C(C3=CC(=O)OC3)CCC12O` (stereo unspecified), the TGI in the test on OVCAR-4 ovarian was 5.39 µM; with SW-620 colon, > 36.8 µM; in the test on CAKI-1 renal, > 19.8 µM; with MALME-3M melanoma, 4.89 µM; in the test with SN12C renal, 4.72 µM; in the test with COLO 205 colon, 12.2 µM. Besides, the TGI is > 100 µM in the test on SR leukemia, 8.23 µM in the test on UO-31 renal, > 35.4 µM in the test on TK-10 renal and 8.36 µM in the test with HL-60(TB) leukemia.
Take `CCCCCN(CCCCC)CC(O)c1cc(C)c2ccc3cc(C(C)C)ccc3c2c1` (stereo unspecified): the GI50 was 1.92 µM in the test with OVCAR-4 ovarian; 1.81 µM in the test with SW-620 colon; 1.4 µM in the test with CAKI-1 renal; 1.92 µM in the test on MALME-3M melanoma; 1.75 µM in the test on SN12C renal; 2.08 µM with COLO 205 colon. The GI50 in the test with SR leukemia was 0.836 µM; with UO-31 renal, 1.48 µM; in the test with TK-10 renal it was 1.89 µM; with HL-60(TB) leukemia, 2.04 µM. The TGI with OVCAR-4 ovarian was 3.75 µM; in the test with SW-620 colon, 3.61 µM; with CAKI-1 renal, 2.81 µM; with MALME-3M melanoma, 3.85 µM; with SN12C renal it was 3.59 µM; with COLO 205 colon it was 4.22 µM. The TGI in the test on SR leukemia came to 3.17 µM; in the test on UO-31 renal, 2.99 µM; in the test on TK-10 renal it was 3.51 µM; in the test with HL-60(TB) leukemia, 4.02 µM.
Regarding `CC(=O)NNc1nc(C)c(C(=O)NNC(=O)C(=O)Nc2c(Cl)cc([N+](=O)[O-])cc2Cl)s1`, the TGI in the test on OVCAR-4 ovarian is 63.2 µM; with SW-620 colon, 78.5 µM; with MALME-3M melanoma, > 100 µM; in the test on SN12C renal it was > 100 µM; in the test with COLO 205 colon, > 100 µM; with SR leukemia, > 100 µM. Moreover, the TGI in the test on UO-31 renal was 87.1 µM; in the test on TK-10 renal it was > 100 µM; with HL-60(TB) leukemia it was 84.7 µM.
With `CC1(C)CCc2c(c3c(c4c(=O)c(O)c(-c5ccc(O)cc5)oc24)OC(C)(C)CC3)O1`, the GI50 in the test with OVCAR-4 ovarian was > 100 µM; in the test with SW-620 colon, > 100 µM; with CAKI-1 renal, > 100 µM; in the test on MALME-3M melanoma, > 100 µM; in the test on SN12C renal it was 82.9 µM; in the test with COLO 205 colon, > 100 µM. The GI50 in the test on SR leukemia is > 100 µM; with UO-31 renal, > 100 µM; in the test with TK-10 renal, 36.6 µM. Also, the TGI in the test on OVCAR-4 ovarian, with SW-620 colon, with CAKI-1 renal, in the test on MALME-3M melanoma, in the test with SN12C renal and in the test with COLO 205 colon was > 100 µM each time. For the same molecule, the TGI in the test with SR leukemia, with UO-31 renal and with TK-10 renal was > 100 µM in each case.
On to `COC(CN1C(=O)c2cccc3cccc(c23)C1=O)OC`, for which the TGI in the test with OVCAR-4 ovarian, in the test on SW-620 colon, in the test on MALME-3M melanoma, in the test on SN12C renal, with COLO 205 colon and in the test on SR leukemia was > 100 µM each time. Also, the TGI with UO-31 renal, in the test with TK-10 renal and in the test with HL-60(TB) leukemia was > 100 µM each time.
Turning to `COc1cc(CNc2cnc3cc(N)cc(N)c3n2)cc(OC)c1`, the GI50 was 24.6 µM with SW-620 colon; 24.8 µM in the test on CAKI-1 renal; 15.2 µM with SN12C renal; 18.8 µM in the test on SR leukemia; 38.2 µM in the test on UO-31 renal; 18.4 µM with TK-10 renal. For the same molecule, in the test on HL-60(TB) leukemia, the GI50 was 32.9 µM. Also, the TGI in the test on SW-620 colon is 64.2 µM; in the test on CAKI-1 renal, 52.3 µM; with SN12C renal, 33.3 µM; in the test with SR leukemia it was > 100 µM; with UO-31 renal, > 100 µM; with TK-10 renal, 57.6 µM. The TGI with HL-60(TB) leukemia is > 100 µM.
`COc1ccc(-c2nc3sccn3c2/C(N)=N/C(=N)N)cc1OC`: the GI50 was > 100 µM in the test on OVCAR-4 ovarian; 28.4 µM in the test on SW-620 colon; 87.7 µM in the test with CAKI-1 renal; 13.3 µM with MALME-3M melanoma; 27.2 µM in the test on SN12C renal; 56.6 µM with COLO 205 colon. Moreover, the GI50 with SR leukemia was 30.5 µM; in the test with UO-31 renal, 7.37 µM; in the test on TK-10 renal, 28.6 µM. The TGI in the test with OVCAR-4 ovarian was > 100 µM; with SW-620 colon it was 72.1 µM; with CAKI-1 renal, > 100 µM; in the test with MALME-3M melanoma, 32.9 µM; with SN12C renal it was > 100 µM; with COLO 205 colon, > 100 µM. Moreover, the TGI is 77.3 µM in the test with SR leukemia, 40.2 µM in the test with UO-31 renal and > 100 µM with TK-10 renal.
For `CCOC(=O)CN1C(=O)c2cccc3cc([N+](=O)[O-])cc(c23)C1=O`, the TGI in the test on OVCAR-4 ovarian worked out at 3.27 µM; in the test with SW-620 colon, 2.99 µM; in the test with MALME-3M melanoma, 5.23 µM; in the test with SN12C renal, 17.2 µM; with SR leukemia, 0.381 µM; with UO-31 renal, 27 µM. Also, the values for the TGI in the test with TK-10 renal and in the test with HL-60(TB) leukemia were 30.7 µM and 2.32 µM, respectively.
Consider `O=C(COc1ccc(Br)cc1Br)N1N=C(c2ccc([N+](=O)[O-])o2)CC1(O)c1ccccc1` (stereo unspecified), for which the TGI in the test on OVCAR-4 ovarian is > 100 µM; with SW-620 colon it was 33.3 µM; in the test with CAKI-1 renal, 65.3 µM; in the test with MALME-3M melanoma, 25.1 µM; with SN12C renal it was 25.7 µM; with COLO 205 colon, 7.05 µM. For the same molecule, the values for the TGI with SR leukemia, in the test with UO-31 renal and with HL-60(TB) leukemia were 8.77 µM, 21.3 µM and 17.1 µM, respectively.
`Cc1coc2c1CC1(C)C(CCC(O)C1C)C2` (stereo unspecified): the TGI with OVCAR-4 ovarian, in the test with SW-620 colon, with CAKI-1 renal, in the test with MALME-3M melanoma, in the test with SN12C renal and in the test on COLO 205 colon was > 100 µM throughout. Also, the TGI in the test on SR leukemia, with TK-10 renal and in the test with HL-60(TB) leukemia was > 100 µM each time.
Take `C=C1C(=O)C23CC1CCC2C12CO[C@@H]4OCC(C)(CC[C@@H]1OC3=O)C42` (stereo partly specified): the TGI in the test on SW-620 colon was found to be 7.04 µM; with CAKI-1 renal, 5.33 µM; with MALME-3M melanoma, 4.14 µM; in the test on SN12C renal, 21.3 µM; in the test with COLO 205 colon it was 4.34 µM; in the test with SR leukemia, 26.4 µM. In addition, the TGI in the test with UO-31 renal worked out at 23.6 µM; in the test with TK-10 renal, 13.8 µM; in the test with HL-60(TB) leukemia it was 19.5 µM.
`CC1=C(C(=O)Nc2ccc(Cl)c(Cl)c2)C(c2cccc(Oc3ccccc3)c2)NC(=S)N1` (stereo unspecified): the GI50 was 7.56 µM in the test on OVCAR-4 ovarian; 8.23 µM in the test on SW-620 colon; 8.48 µM in the test on CAKI-1 renal; 8.75 µM with SN12C renal; 9.38 µM in the test on COLO 205 colon; 44.9 µM in the test with SR leukemia. The GI50 was 7.63 µM in the test with UO-31 renal, 11.3 µM in the test on TK-10 renal and 15.9 µM in the test with HL-60(TB) leukemia. The TGI in the test with OVCAR-4 ovarian was 16.5 µM; with SW-620 colon, 15 µM; in the test on CAKI-1 renal it was 15.4 µM; with SN12C renal, 15.9 µM; in the test on COLO 205 colon, 21.1 µM; in the test on SR leukemia, > 50 µM. For the same molecule, the TGI in the test on UO-31 renal is 17.6 µM; in the test on TK-10 renal, 19.7 µM; with HL-60(TB) leukemia it was > 50 µM.
For `N#CC1C(C#N)C2(c3ccccc3)C(c3ccccc3)=NN(c3ccccc3)CC12` (stereo unspecified), the TGI with OVCAR-4 ovarian, with SW-620 colon, in the test on CAKI-1 renal, in the test on MALME-3M melanoma, with SN12C renal and in the test on SR leukemia was > 100 µM throughout. Besides, the TGI with UO-31 renal, with TK-10 renal and in the test on HL-60(TB) leukemia was > 100 µM in each case.
`O=C1/C(=C/c2ccccc2)CN(C(=O)C(Cl)(Cl)Cl)C/C1=C\c1ccccc1`: the TGI came out at 3.42 µM with OVCAR-4 ovarian; 1.82 µM in the test with SW-620 colon; 6.01 µM in the test with MALME-3M melanoma; 3.12 µM in the test with SN12C renal; 4.69 µM in the test with COLO 205 colon; 7.1 µM in the test on SR leukemia. Further, the values for the TGI in the test on UO-31 renal, in the test with TK-10 renal and in the test on HL-60(TB) leukemia were 7.03 µM, 8.72 µM and 0.524 µM, respectively.
Regarding `CN1C(=O)C(C)(C)C2(SC(C)(C)C2(C)C)N(C)C1=S` (stereo unspecified), the TGI with OVCAR-4 ovarian, in the test on SW-620 colon, with CAKI-1 renal, in the test with MALME-3M melanoma, in the test with SN12C renal and with COLO 205 colon was > 100 µM in each case. The TGI in the test on SR leukemia, in the test with UO-31 renal and in the test with HL-60(TB) leukemia was > 100 µM each time.
As for `CC(C)C/C(CC(=O)CCC(=O)Nc1ccccc1[N+](=O)[O-])=N\NC(=O)c1cc2ccccc2cc1O`, the TGI with SW-620 colon is > 100 µM; in the test on CAKI-1 renal, > 100 µM; with MALME-3M melanoma, > 100 µM; in the test on SN12C renal it was > 100 µM; in the test on COLO 205 colon, 69 µM; in the test on SR leukemia it was > 100 µM. The TGI in the test on UO-31 renal was > 100 µM; with TK-10 renal, > 100 µM; in the test on HL-60(TB) leukemia, 88.7 µM.
Regarding `CC1=C(C(=O)NCc2ccccc2)C(/C=C/c2ccccc2)C(C(=O)NCc2ccccc2)=C(C)N1`, the TGI in the test with OVCAR-4 ovarian, in the test with SW-620 colon, with CAKI-1 renal, with MALME-3M melanoma, in the test on SN12C renal and in the test with SR leukemia was > 100 µM throughout. The TGI in the test on UO-31 renal, in the test on TK-10 renal and with HL-60(TB) leukemia was > 100 µM throughout.
